Laboratory results as given in patent publication US4992450A, “Piperidine opioid antagonists” (Eli Lilly and Company, priority 1989, dated 1991).
Counter-ions that a name gives are not always drawn. Like-named read-outs stand apart in the source and are kept apart here.

Columns and labels:
[1] = target: T1, mu receptor (Rattus norvegicus, UniProt P33535); assay: Opioid receptor binding displacement assay, mu site (rat whole brain minus cerebellum, 3H ligand); set-up: species or system Male Sprague Dawley rats
T1 construct: rat whole brain minus cerebellum for mu and delta sites; from tissue; host or cells: rat whole brain minus cerebellum, frozen pellet fraction
Description: (§1) This assay was conducted by the following procedure.
(§2) Male Sprague Dawley rats for mu and delta site experiments and male Hartley guinea pigs for kappa site experiments were sacrificed via decapitation and the brains were removed. The brain tissue, rat whole brain minus cerebellum for mu and delta sites and guinea pig cortex for the kappa site, was homogenized in a Teflon and glass tissue homogenizer. A supernatant I, pellet IV, fraction was frozen in a nitrogen freezer at 1.33 g/ml concentration and stored for not longer than five weeks prior to use. Pellets were rehydrated with physiological buffer prior to use.
(§3) The reaction was initiated by the addition of the rehydrated tissue which has been preincubated at 37° C. for 20 minutes. The reaction mixture was incubated in a 37° C. water bath for 20 minutes. The reaction was terminated by rapid filtration, (Amicon vacuum manifolds), through Whatman GF/C glass filters that had been presoaked in Krebs-Hepes buffer pH 7.4. The filters were then washed 2× with 5 ml of ice cold Krebs-Hepes buffer pH 7.4. Washed filters were placed in scintillation vials and 10 ml PCS, (Amersham), was added and samples counted in a Searle D-300 beta counter. Means and standard error statistics were calculated for triplicate experimental determinations in certain cases. The procedure was slightly modified for the kappa site. The tissue was pretreated with 100 nM concentrations of mu and delta receptor site blockers. The incubation time for the reaction mixture was 45 minutes at 37° C.

[2] = target: T2, mu receptor (Mus musculus, UniProt P42866); assay: Mouse writhing assay, antagonism of morphine analgesia (mu); format: in vivo, CF-1 male mice; details: sc, read-out: Mu AD50
T2 construct: Five CF-1 male mice (Charles River, Portage, Mich.); from tissue; host or cells: whole living CF-1 male mice (in vivo)

[3] = target: T3, kappa receptor (Mus musculus, UniProt P33534); assay: in vivo; set-up: species or system CF-1 male mice; details: sc, read-out: Kappa AD50
T3 construct: Five CF-1 male mice (Charles River, Portage, Mich.); from tissue; host or cells: whole living CF-1 male mice (in vivo)

[4] = target: T4, kappa receptors (Rattus norvegicus, UniProt P34975); assay: Rat diuresis assay, antagonism of bremazocine-induced urination; format: in vivo, male Long-Evans hooded rats; details: sc, rats, s.c., urinary output reduced to 50% of effect of 0.08 mg/kg bremazocine alone
T4 construct: sixty male Long-Evans hooded rats; from tissue; host or cells: whole living male Long-Evans hooded rats (in vivo)
Description: As such, the compounds of the invention were also evaluated in a rat diuresis assay conducted according to the following procedure described by Leander et al. in Drug Development Research 4:421-427 (1984) in an effort to further establish the ability of the present compounds to block kappa receptors.
According to this procedure, sixty male Long-Evans hooded rats (Charles River Breeding Laboratories, Portage, Mich.) weighing between about 300 and 500 grams each were housed either individually or in pairs in a temperature-controlled (23° C.) colony room which was illuminated between 6:00 A.M. and 6:00 P.M. Rodent chow and tap water were continuously available except during the measurement of urine output. The animals were used repeatedly, but no more frequently than twice a week.
The animals were then injected with various doses of the test compounds. To measure urine output, the animals were removed from the home cages, weighed, injected and placed in metabolism cages for 5 hr. Excreted urine was funneled into graduated cylinders. Cumulative urine volumes were determined at designated time intervals, usually at 2 and 5 hr after injection.
The compounds which are salt forms were dissolved in distilled water. If necessary, the compounds were dissolved in distilled water with the aid of either a few drops of lactic acid or hydrochloric acid and gentle warming. All injections were s.c. in a volume of 1 ml/kg of body weight. During tests for antagonism, two injections were given, one on each side of the body.
In the Table, column 1 provides the Example Number of the compound tested; column 2, the amount of compound in mg/kg necessary to reduce the urinary output to 50% of the effect produced by 0.08 mg/kg of bremazocine alone two hours after injection of bremazocine and the test compound; and column 3, the amount of compound in mg/kg necessary to reduce the urinary output to 50% of the effect produced by 0.08 mg/kg of bremazocine alone five hours after injection of bremazocine and the test compound.

[5] = tested on: meal fed obese Zucker rats; assay: Food consumption assay in meal fed obese Zucker rats; format: in vivo; details: Rattus norvegicus, sc, 4 h, amount to decrease food consumption 20% during first four hours
Source text: The following assay was employed to evaluate the ability of the compounds of the invention to effect food and water consumption of meal fed obese Zucker rats.
According to this procedure, 3-4 month old obese Zucker rats were trained to eat food daily from 8:00 A.M. to 4:00 P.M. only, such that the body weight gain approximates that if the rats were fed ad libitum. These rats were allowed to consume water at all times. Four groups of rats with four rats in each group, two female and two male, were formed. One group served as control for the other three groups each day. Each of the other groups were given a subcutaneous dose of the compound to be evaluated. The test compound was formulated in physiological saline containing 10% dimethylsulfoxide by volume.
Animals remained drug free for 4 days before the next test. Food and water consumption of each rat were measured for the first four hours. A test on one compound was run for three consecutive days. The drug effect was expressed as the percent of the control for that test day.
In the Table, column 1 gives the Example Number of the compound evaluated; and column 2 provides the ED20 in mg/kg, wherein ED20 represents the amount of compound evaluated in mg/kg necessary to decrease food consumption 20% during the first four hours of the experiment.

[6] = target: T5, kappa receptor (Cavia porcellus, UniProt P41144); assay: Opioid receptor binding displacement assay, kappa site (guinea pig cortex, 3H ligand); set-up: species or system male Hartley guinea pigs
T5 construct: guinea pig cortex for the kappa site; from tissue; host or cells: guinea pig cortex, frozen pellet fraction
Description: as §1, §2, §3

[7] = rat brain minus cerebellum, pH 7.4, 37° C., 20 minutes, read-out: Ki Mu
[8] = 2 h, two hours after injection, read-out: AD50 Two Hours
[9] = 5 h, five hours after injection, read-out: AD50 Five Hours
[10] = guinea pig cortex, pH 7.4, 37° C., 45 minutes, mu and delta sites blocked (100 nM), read-out: Ki Kappa

T4 sequence (P34975 whole entry): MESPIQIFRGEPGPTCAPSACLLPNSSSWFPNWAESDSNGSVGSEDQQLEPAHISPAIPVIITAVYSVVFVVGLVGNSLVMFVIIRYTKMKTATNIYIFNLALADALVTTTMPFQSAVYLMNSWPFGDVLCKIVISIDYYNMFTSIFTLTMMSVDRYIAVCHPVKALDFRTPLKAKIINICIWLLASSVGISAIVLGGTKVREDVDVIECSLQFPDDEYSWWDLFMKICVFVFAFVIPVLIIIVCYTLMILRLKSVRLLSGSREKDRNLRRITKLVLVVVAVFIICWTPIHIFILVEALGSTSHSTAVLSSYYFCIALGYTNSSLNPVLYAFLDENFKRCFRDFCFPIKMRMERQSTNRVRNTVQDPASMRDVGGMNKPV
T1 sequence (P33535 whole entry): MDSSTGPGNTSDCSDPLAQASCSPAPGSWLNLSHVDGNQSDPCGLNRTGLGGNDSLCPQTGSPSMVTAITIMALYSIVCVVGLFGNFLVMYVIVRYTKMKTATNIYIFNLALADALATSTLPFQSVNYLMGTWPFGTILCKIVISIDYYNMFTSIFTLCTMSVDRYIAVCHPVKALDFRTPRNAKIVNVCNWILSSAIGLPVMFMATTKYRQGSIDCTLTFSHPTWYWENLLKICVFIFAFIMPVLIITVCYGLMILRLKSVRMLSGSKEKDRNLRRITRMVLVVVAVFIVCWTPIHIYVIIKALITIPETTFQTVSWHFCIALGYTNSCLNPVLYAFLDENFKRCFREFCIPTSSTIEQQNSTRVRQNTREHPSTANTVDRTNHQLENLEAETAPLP
T3 sequence (P33534 whole entry): as the sequence (P34975 whole entry) above, with E11D, A17S, P51S, V308A counted along it
T5 sequence (P41144 whole entry): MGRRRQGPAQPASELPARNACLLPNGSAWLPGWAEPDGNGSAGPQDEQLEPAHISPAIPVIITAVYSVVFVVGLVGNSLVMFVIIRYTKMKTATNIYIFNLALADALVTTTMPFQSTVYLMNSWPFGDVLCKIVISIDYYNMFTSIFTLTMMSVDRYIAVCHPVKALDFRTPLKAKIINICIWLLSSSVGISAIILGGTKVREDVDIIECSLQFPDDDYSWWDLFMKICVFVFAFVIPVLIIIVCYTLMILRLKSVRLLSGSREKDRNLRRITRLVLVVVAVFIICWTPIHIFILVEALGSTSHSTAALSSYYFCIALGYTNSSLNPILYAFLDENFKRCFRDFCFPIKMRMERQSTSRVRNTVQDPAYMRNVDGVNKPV
T2 sequence (P42866 whole entry): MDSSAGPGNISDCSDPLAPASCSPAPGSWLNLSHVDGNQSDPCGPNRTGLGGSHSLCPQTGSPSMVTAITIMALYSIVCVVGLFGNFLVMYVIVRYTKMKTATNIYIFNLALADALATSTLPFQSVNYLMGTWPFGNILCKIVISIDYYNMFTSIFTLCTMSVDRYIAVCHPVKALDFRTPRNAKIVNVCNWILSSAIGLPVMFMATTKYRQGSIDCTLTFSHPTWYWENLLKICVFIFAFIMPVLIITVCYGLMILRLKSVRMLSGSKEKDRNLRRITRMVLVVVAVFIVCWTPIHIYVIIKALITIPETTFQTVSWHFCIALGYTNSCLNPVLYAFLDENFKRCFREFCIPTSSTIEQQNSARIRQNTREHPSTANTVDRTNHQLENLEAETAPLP

Structure (SMILES) | Ki [1, 7] | ED50 [2] | ED50 [3] | ED50 [4, 8] | ED50 [4, 9] | ED20 [5] | Ki [1] | Ki [6] | Ki [6, 10] | Ki ([6]; read-out: Ki Kappa, guinea pig cortex, pH 7.4, 37° C., 45 minutes, mu and delta sites blocked (100 nM))
C[C@H]1CN(CCC(O)c2cccs2)CC[C@@]1(C)c1cccc(O)c1 (relative stereo) [Example 40, trans-(±)-1-[R,S-[3-Hydroxy-3-(2-thienyl)-propyl]-3,4-dimethyl-4-(3-hydroxyphenyl)piperidine hydrochloride] | 0.5 nM | 0.065 mg/kg | 0.14 mg/kg | 3.78 mg/kg | 1.44 mg/kg | 0.11 mg/kg | – | – | – | –
C[C@@H]1CN(CC[C@@H](O)C2CCCCC2)CC[C@]1(C)c1cccc(O)c1 [Example 26, trans-(-)-1-[R-(3-Hydroxy-3-cyclohexylpropyl)]-3,4-dimethyl-4-(3-hydroxyphenyl)piperidine] | – | 0.07 mg/kg | 0.52 mg/kg | – | – | 0.35 mg/kg | 2.24 ± 0.17 nM | – | – | –
C=C(C)CCCN1CCC(C)(c2cccc(O)c2)C(C)C1 (stereo not drawn) [Example 3, trans-(±)-1-(4-Methyl-4-pentenyl)-3,4-dimethyl-4-(3-hydroxyphenyl)piperidine hydrochloride] | – | 0.08 mg/kg | 0.29 mg/kg | 0.27 mg/kg | 0.39 mg/kg | 0.29 mg/kg | 2.95 ± 1.12 nM | 13.9 ± 6.66 nM | – | –
C[C@H]1CN(CCc2ccccc2)CC[C@@]1(C)c1cccc(O)c1 (relative stereo) [Compound D, 3-(3α,4β-Dimethyl-1-phenethyl-4α-piperidyl)phenol hydrochloride, reference compound] | 1.2 nM | 0.16 mg/kg | 1.38 mg/kg | – | – | 0.94 mg/kg | – | – | 51 nM | –
C[C@H]1CN(C)CC[C@@]1(C)c1cccc(O)c1 (relative stereo) [Compound B, 3-(1,3α,4β-Trimethyl-4α-piperidyl)phenol hydrochloride, reference compound] | 80 nM | 0.74 mg/kg | 2.5 mg/kg | – | – | 3.99 mg/kg | – | – | – | –
C[C@H]1CN(CCC(=O)C2CCCC2)CC[C@@]1(C)c1cccc(O)c1 (relative stereo) [Example 17, trans-(±)-1-(1-Cyclopentylpropanon-3-yl)-3,4-dimethyl-4-(3-hydroxyphenyl)piperidine hydrochloride] | – | 0.21 mg/kg | 0.19 mg/kg | – | – | 0.31 mg/kg | 0.84 nM | 0.55 nM | – | –
CC(C)CCCCN1CCC(C)(c2cccc(O)c2)C(C)C1 (stereo not drawn) [Example 4, trans-(±)-1-(5-Methylhexyl)-3,4-dimethyl-4-(3-hydroxyphenyl)piperidine hydrochloride] | – | 0.35 mg/kg | 0.23 mg/kg | 0.17 mg/kg | 0.46 mg/kg | 0.05 mg/kg | – | – | – | 6.04 ± 0.44 nM
CC1CN(CC2CCCCC2)CCC1(C)c1cccc(O)c1 (stereo not drawn) [Example 10, trans-(±)-1-(Cyclohexylmethyl)-3,4-dimethyl-4-(3-hydroxyphenyl)piperidine hydrochloride] | – | 0.46 mg/kg | 0.34 mg/kg | 14.9 mg/kg | 3.9 mg/kg | 1.25 mg/kg | – | 28.2 nM | – | –
CC1CN(CCC2CCCC2)CCC1(C)c1cccc(O)c1 (stereo not drawn) [Example 6, trans-(±)-1-(2-Cyclopentylethyl)-3,4-dimethyl-4-(3-hydroxyphenyl)piperidine hydrochloride] | – | 0.13 mg/kg | 0.22 mg/kg | – | 0.67 mg/kg | 0.33 mg/kg | 0.94 nM | – | – | –
C[C@@H]1CN(CC[C@H](O)C2CCCCC2)CC[C@]1(C)c1cccc(O)c1 [Example 24, trans-(-)-1-[S-(3-Hydroxy-3-cyclohexylpropyl)]-3,4-dimethyl-4-(3-hydroxyphenyl)piperidine] | 1.4 ± 0.61 nM | 0.05 mg/kg | 0.24 mg/kg | – | – | 0.12 mg/kg | – | – | 11.4 ± 4.29 nM | –
C[C@H]1CN(CCC2C=CCC2)CC[C@@]1(C)c1cccc(O)c1 (relative stereo) [Example 7, trans-(±)-1-[2-(2-Cyclopenten-1-yl)ethyl]-3,4-dimethyl-4-(3-hydroxyphenyl)piperidine hydrochloride] | – | 0.11 mg/kg | 0.12 mg/kg | 1.3 mg/kg | 1.38 mg/kg | 0.34 mg/kg | – | 1.04 nM | – | –
CC(C)CCN1CCC(C)(c2cccc(O)c2)C(C)C1 (stereo not drawn) [Example 16, trans-(±)-1-(3-Methylbutyl)-3,4-dimethyl-4-(3-hydroxyphenyl)piperidine hydrochloride] | – | 0.87 mg/kg | 0.62 mg/kg | 7.7 mg/kg | 4.45 mg/kg | > 20 mg/kg | – | 70.1 nM | – | –
COC(CCN1CC[C@@](C)(c2cccc(O)c2)[C@@H](C)C1)C1CCCCC1 (relative stereo) [Example 31, trans-(±)-1-[R,S-(3-Methoxy-3-cyclohexylpropyl)]-3,4-dimethyl-4-(3-hydroxyphenyl)piperidine hydrochloride] | 0.77 nM | 1.42 mg/kg | 0.44 mg/kg | – | – | – | – | – | 3.82 nM | –
CC1CN(CCCc2ccsc2)CCC1(C)c1cccc(O)c1 (stereo not drawn) [Example 41, trans-(±)-1-[3-(3-Thienyl)propyl]-3,4-dimethyl-4-(3-hydroxyphenyl)piperidine hydrochloride] | – | 0.12 mg/kg | 0.24 mg/kg | 2.7 mg/kg | 1.9 mg/kg | – | – | 10.3 nM | – | –
C=CCCCCN1CCC(C)(c2cccc(O)c2)C(C)C1 (stereo not drawn) [Example 21, trans-(±)-1-(5-n-Hexenyl)-3,4-dimethyl-4-(3-hydroxyphenyl)piperidine hydrochloride] | – | – | – | – | – | 9.37 mg/kg | 1.61 nM | – | – | –
CC1CN(CCCC2CCCCC2)CCC1(C)c1cccc(O)c1 (stereo not drawn) [Example 11, trans-(±)-1-(3-Cyclohexylpropyl)-3,4-dimethyl-4-(3-hydroxyphenyl)piperidine hydrochloride] | – | 0.19 mg/kg | 0.35 mg/kg | 1.9 mg/kg | 1.02 mg/kg | 0.15 mg/kg | – | 2.34 nM | – | –
C[C@H]1CN(CCC(O)C2CCCCC2)CC[C@@]1(C)c1cccc(O)c1 (relative stereo) [Example 27, trans-(±)-1-[R,S-(3-Hydroxy-3-cyclohexylpropyl)]-3,4-dimethyl-4-(3-hydroxyphenyl)piperidine hydrochloride] | 0.22 ± 0.03 nM | 0.07 mg/kg | 0.14 mg/kg | – | – | 0.04 mg/kg | – | – | 5.04 ± 0.58 nM | –
